Source: paper PMC8226839, “New Perspectives in the Antimicrobial Activity of the Amphibian Temporin B: Peptide Analogs Are Effective Inhibitors of Candida albicans Growth” (Journal of Fungi, 2021)
Read-outs that look alike come from different tables or passages of the source. Square brackets hold non-standard residues; d marks the D form. Peptide text beside a SMILES is read from it.

Experiments:
in vitro = type: cell-based; settings: human, 3D Phenion OS-REp reconstructed epidermis model
Description: The TB peptide analogs were tested for their skin irritation potential in vitro using the three-dimensional (3D) Phenion® open-source reconstructed epidermis model (Henkel, Düsseldorf, Germany) with slight adaptation from Groeber et al. and Mewes et al. [22, 23] and the test guidelines 439 of the Organization for Economic Cooperation and Development (OECD) [24]. In brief, the epidermal tissue models were equilibrated in 6-well plates ([…] , Hamburg, Germany) with 1.5 mL of Phenion® OS_REp air-liquid interface (ALI) medium (Henkel, Düsseldorf, Germany) for 24 h at 37 °C, 5% (v/v) CO2. Then, the medium was replaced by fresh medium and 25 μL Dulbecco's phosphate-buffered saline (D-PBS) containing 50 μg of the peptide, respectively, was dispensed directly on top of the models and spread gently over the surface with sterile glass applicators. […] All samples and controls were prepared in triplicates. After incubation at 25 °C for 35 min, each model was thoroughly dipped six times in 1 L of D-PBS. […] From each tissue sample, 200 μL of the formazan extraction solution were transferred in duplicates to a 96-well microtiter plate and the optical density was measured in a multimode plate reader (FLUOstar Omega, BMG Labtech, Ortenberg, Germany) at a wavelength of 550 nm. The relative metabolic activity was calculated from two replicates per tissue and three tissues per assay.

[1] = test system: Candida albicans 27700 (fluconazole-resistant clinical isolate); settings: 27700 (fluconazole-resistant clinical isolate, 24 h)
Candida albicans [2] = settings: 24 h
Staphylococcus aureus = settings: 24 h
C. albicans cells = type: cell-based, Candida albicans
Description: (§1) At the time points 5 min, 6 h and 24 h, aliquots were taken and plated in appropriate dilutions onto PDA plates in duplicates to stimulate the growth of viable cells. The colony-forming units (CFU) were counted after incubation at 30 °C for 24 h. […] To determine the efficacy of the TB peptide analogs on sessile C. albicans cells, biofilm formation was induced by adding 100 μL of C. albicans (1 × 10^6 cells mL^−1) in 0.05 × PDB to each well of a 96-well, flat-bottom microtiter plate (Nunclon Delta, Thermo Fisher Scientific, Waltham, MA, USA) and incubating for 24 h at 30 °C. The formed biofilm was then evaluated microscopically for cell attachment and pseudo-hyphae formation before proceeding with peptide application. The serially diluted TB peptide analogs (in 0.05 × PDB) were added to the biofilm in 100 μL aliquots to reach a final volume of 200 μL per well. For the positive control, 10 µg mL^−1 Amphotericin B (Sigma-Aldrich, St. Louis, MO, USA) was used, while 0.05 × PDB was added to the growth control. After further incubation for 24 h at 30 °C, the biofilm was disrupted by vigorous pipetting, and 20 µL of the detached cells were mixed with 80 µL of 0.05 × PDB. […] The effectiveness of the TB peptide analogs to reduce biofilm formation was calculated by comparing the number of CFU at different peptide concentrations with that of the untreated growth control. […]

Candida parapsilosis = settings: 24 h
Candida glabrata = settings: 24 h
C. albicans = assay: Broth microdilution, impact of protease inactivation conditions (growth %); type: cell-based, Candida albicans; settings: 0.125 µM protease alone + 100 °C, 15 min
IL-1α = assay: Release of proinflammatory cytokine IL-1α from Phenion OS-REp model (ELISA); settings: culture medium 24 h after 35 min exposure; 50 μg peptide per model (SDS 5% w/v)
[3] = test system: sessile C. albicans cells (biofilm); assay: Survival of sessile cells of a 24 h old biofilm (CFU plating); type: cell-based, Candida albicans; settings: 10 µg mL^−1, 24 h exposure; untreated growth control 100%
Description: as §1

Candida albicans [4] = assay: microbe, parasite or virus in culture

For `CC[C@H](C)[C@H](NC(=O)[C@@H]1CCCN1C(=O)[C@H](CC(C)C)NC(=O)[C@H](CC(C)C)NC(=O)[C@@H](CCCCN)NC(=O)[C@H](N)CCCCN)C(=O)N[C@H](C(=O)N[C@H](CCCCN)C(=O)N[C@@H](CC(N)=O)C(=O)N[C@@H](CC(C)C)C(=O)N[C@@H](CC(C)C)C(=O)N[C@H](CCCCN)C(=O)N[C@@H](CO)C(=O)N[C@@H](CC(C)C)C(=O)N[C@@H](CC(C)C)C(N)=O)C(C)C` [D-Lys_TB_KKG6K] (H-[dK][dK]LLPIV[dK]NLL[dK]SLL-NH2), the viability at 35 min, 2000 µg/mL (in vitro) was 91.4 ± 2.9%, the IC90 [1] was 1800 nM and the IC90 (Candida albicans [2]) was 1800 nM. The IC90 (Staphylococcus aureus) was 14400 nM, the “killing (CFU)” value (C. albicans cells; 24 h) was 100% and the IC90 (Candida parapsilosis) was 1800 nM. The IC90 (Candida glabrata) was 1800 nM.

For Chymotrypsin, the “Growth [%]” value (C. albicans) was 76.1 ± 6.9%.

`CC[C@H](C)[C@H](NC(=O)[C@@H]1CCCN1C(=O)[C@H](CC(C)C)NC(=O)[C@H](CC(C)C)NC(=O)[C@H](CCCCN)NC(=O)[C@@H](N)CCCCN)C(=O)N[C@H](C(=O)N[C@@H](CCCCN)C(=O)N[C@@H](CC(N)=O)C(=O)N[C@@H](CC(C)C)C(=O)N[C@@H](CC(C)C)C(=O)N[C@@H](CCCCN)C(=O)N[C@@H](CO)C(=O)N[C@@H](CC(C)C)C(=O)N[C@@H](CC(C)C)C(N)=O)C(C)C` [TB_KKG6K] (H-KKLLPIVKNLLKSLL-NH2) showed a viability at 35 min, 2000 µg/mL (in vitro) of 94.2 ± 2.9%, an IC90 [1] of 1800 nM and an IC90 (Candida albicans [2]) of 1800 nM. The IC90 (Staphylococcus aureus) was 3600 nM, the “killing (CFU)” value (C. albicans cells; 6 h) was 100% and the IC90 (Candida parapsilosis) was 1800 nM. For the same compound, the IC90 (Candida glabrata) was 1800 nM.

In the case of `CCCCCCCCCCCCOS(=O)(=O)[O-].[Na+]` [5% SDS, sodium dodecyl sulfate], the “IL-1α” value (IL-1α) is reported as 199.2 ± 47.7 pg/mL.

In the case of `C[C@@H]1[C@H](O)[C@@H](C)/C=C/C=C/C=C/C=C/C=C/C=C/C=C/[C@H](O[C@@H]2O[C@H](C)[C@@H](O)[C@H](N)[C@@H]2O)C[C@@H]2O[C@](O)(C[C@@H](O)C[C@@H](O)[C@H](O)CC[C@@H](O)C[C@@H](O)CC(=O)O[C@H]1C)C[C@H](O)[C@H]2C(=O)O` [Amphotericin B], the “CFU [%]” value [3] is reported as 0 ± 0 %, the IC90 (Candida albicans [4]) is reported as 0.055 µg/mL and the IC90 (Candida albicans [4]; 24 h) is reported as 60 nM.

`CC[C@H](C)[C@H](NC(=O)[C@@H]1CCCN1C(=O)[C@H](CC(C)C)NC(=O)[C@H](CC(C)C)NC(=O)[C@H](CCCCN)NC(=O)[C@H](CCCCN)NC(=O)[C@H](CCCCN)NC(=O)[C@@H](N)CCCCN)C(=O)N[C@H](C(=O)N[C@@H](CC(N)=O)C(=O)N[C@@H](CC(C)C)C(=O)N[C@@H](CC(C)C)C(=O)N[C@@H](CO)C(=O)N[C@@H](CC(C)C)C(=O)N[C@@H](CC(C)C)C(N)=O)C(C)C` [TB_KKG6K^scrambled] (H-KKKKLLPIVNLLSLL-NH2; N-terminus assumed) showed an IC90 (Candida albicans [2]) of 1800 nM and an IC90 (Staphylococcus aureus) of 7200 nM.
